Assay results reported in patent publication US10370391B2, “Hydrogen peroxide-activable, anti-oxidant compounds and methods using same” (Beth Israel Deaconess Medical Center, Inc., priority 2014, dated 2019).

How the values were obtained:
TNF-α = TNF-α level in LPS-stimulated macrophage cells; assay type: cell-based, mouse
Protocol: (§1) FIG. 4, comprising FIGS. 4A-4F, is a set of graphs, bar graphs and images illustrating anti-oxidant and anti-inflammatory effects of BRAP in vitro. […] The generation of ROS was monitored by flow cytometry as an indicator of DCF fluorescence. Fluorescence was analyzed in 10,000 cells with excitation at 480 nm and emission at 530 nm. FIG. 4C: Protective effect of BRAP on H2O2— stimulated adult rat cardiomyocytes. V=vehicle, *<0.05 vs. V+H2O2 (n=4). […] (n=4/group).
(§2) The anti-inflammatory effects of BRAP on LPS-stimulated cells were investigated by measuring the level of inflammatory cytokines such as TNF-α (tumor necrosis factor-alpha) and iNOS (inducible nitric oxide synthases) (FIGS. 4E-4F). […] These observations indicate that BRAP, as well as BRAP-encapsulated PLGA microparticles, is able to scavenge overproduced H2O2 and serve as a H2O2-activable anti-oxidant. Further, the enhanced anti-oxidant activity of BRAP is derived from the combined effects of H2O2-scavenging boronic esters and HBA generation after H2O2-mediated boronate oxidation.

[1] = system: mouse macrophage (RAW 264.7) cells stimulated by LPS; test: Intracellular ROS generation in LPS-stimulated macrophages (DCFH-DA, flow cytometry); assay type: cell-based; conditions: HBA 0.5 mM; LPS 1 μg/mL
Protocol: as §1
The anti-oxidant activities of BRAP were examined using mouse macrophage (RAW 264.7) and fibroblast (NIH/3T3) cells stimulated by LPS (lipopolysaccharide) (FIGS. 4A-4B). Intracellular ROS production in the stimulated cells was analyzed by flow cytometry using DCFH-DA ([…]-diacetate), which can be oxidized by the action of various intracellular oxidants such as H2O2 and hydroxyl radical to become fluorescent […] (DCF) (Kim, et al., 2011, Biomat. 32:3021; Cho, et al., 2012, Adv. Funct. Mat. 22:4038). Untreated cells have no significant DCF fluorescence.

[2] = system: nitric oxide production in LPS-treated cells; test: Nitric oxide generation in LPS-treated cells (Griess reaction); assay type: cell-based; conditions: HBA alone
Protocol: as §1
Nitric oxide is one of major sources of oxidative stress and a well-known pro-inflammatory mediator in the pathogenesis of inflammation (Lundberg, et al., 1997, Nature Medicine 3:30). The effects of BRAP on the generation of nitric oxide in LPS-treated cells were studied using a colorimetric assay based on the Griess reaction.

iNOS = iNOS level in LPS-stimulated macrophage cells; assay type: cell-based, mouse
Protocol: as §1, §2

[3] = H2O2 scavenging by peroxalate chemiluminescence (diphenyl oxalate, rubrene); conditions: H2O2 solution 10 μM; HBA alone 10 μM
Protocol: FIG. 21 is a bar graph illustrating H2O2-scavenging by BRAP-encapsulated PLGA microparticles. BRAP-encapsulated PLGA microparticles were incubated in H2O2 solution (10 μM) for 10 minutes, and the level of H2O2 was determined by peroxalate chemiluminesce using rubrene (1 mg) and diphenylperoxalate (10 mg).
Without wishing to be limited by any theory, BRAP could scavenge H2O2 during its H2O2-mediated boronate oxidation. This possibility was investigated using peroxalate chemiluminescence. Peroxalate chemiluminescence has been used as a versatile tool for the detection of a variety of chemical species including fluorescent molecules and H2O2 because of its excellent specificity and simplicity (Hadd, et al., 1999, J. Chem. Educ. 76:1237; Lee, et al., 2011, Bull. Korean Chem. Soc. 32:2187). […] A majority of H2O2 was scavenged by the same concentration of BRAP within 1 minutes.
The ability of the boronate compound to scavenge H2O2 was evaluated by measuring the chemiluminescence intensity after the reaction with diphenyl oxalate solution including rubrene. The boronate (1 μM, or 10 μM) was added in the H2O2 solution (10 μM). After 1 min reaction with H2O2, diphenyl oxalate solution was added to the H2O2 solution, and the chemiluminescence intensity was measured by using a luminometer (Femtomaster FB 12, Zylux Corporation, TN, US; FIG. 13).
The ability of BRAP to scavenge H2O2 was evaluated by measuring the chemiluminescence intensity after the reaction with diphenyl oxalate solution including rubrene. BRAP (1 μM, 5 μM, 10 μM, 20 μM) was added in the H2O2 solution (10 μM). After 1, 5 or 10 min reaction with H2O2, diphenyl oxalate solution was added to the H2O2 solution, and the chemiluminescence intensity was measured by using a luminometer (Femtomaster FB 12, Zylux Corporation, TN, US).

hepatic I/R injury = test: Mouse model of hepatic I/R injury; assay type: in vivo; conditions: ip at reperfusion
Protocol: FIG. 5, comprising FIGS. 5A-5D, is a set of images and bar graphs illustrating beneficial effects of BRAP in hepatic I/R (1 hour ischemia/12 hour reperfusion) injury. FIG. 5A: Hematoxylin and eosin (H/E) staining, DHE staining, and TUNEL staining of mouse liver after injection with HBA or BRAP. FIGS. 5B-5D: Quantitative analysis of serum ALT levels (FIG. 5B), cleaved caspase-3 protein expression (FIG. 5C), and TNF-α protein expression (FIG. 5D) after I/R injury. *p<0.01 relative to Veh I/R. †p<0.05 relative to HBA I/R (n=3˜4/group). Actin protein expression was used as an internal control for protein loading.
Experiments to evaluate whether BRAP reduces ROS generation and inhibits apoptosis were performed in a mouse model of […] I/R injuries. I/R was induced first by 1 hour of ligation of hepatic artery and portal vein followed by reperfusion of hepatic artery. BRAP or HBA was then administrated intraperitoneally (ip) at the time of reperfusion.
Hepatic I/R surgery was performed in 12 week-old male mice. Briefly, mice were anaesthetized, and midline incision was performed for laparotomy. After identifying the portal triad and biliary tree, the main trunk of hepatic artery and portal vein were clamped with vascular clip except for the vasculatures to the right lower lobe to achieve ischemic injury to approximately 70% of the liver. After 1 hour of ischemia, reperfusion was achieved by releasing the vascular clip. No vascular clamp was done for the sham group of mice.
For liver apoptosis assay, terminal deoxynucleotidyl transferase dUTP nick end labeling (TUNEL) staining was performed using a DeadEnd™ Fluorometric TUNEL kit (Promega, Madison, Wis.). Tissue sections were stained for nuclei (4′,6-diamidino-2-phenylindole (DAPI) staining) and apoptotic nuclei (TUNEL staining) and analyzed using a confocal laser scanning microscope. For heart tissues, TUNEL staining was performed using in situ cell death detection Kit, fluorescein (Roche Applied Science, Indianapolis, Ind.). To distinguish cardiomyocyte from non-cardiomyocyte nuclei, triple stain for nuclei (DAPI staining), apoptotic nuclei (TUNEL staining), and cardiomyocytes (α-Actinin staining) was used, and the stained sections were analyzed using confocal microscopy. A minimum of ˜10 high power fields with ˜2000 nuclei/field were counted for each sample.
Heart tissues were collected for molecular analyses were performed in Bae, et al., 2010, Am J Physiol Heart Circ Physiol 299:H1374. For RT-PCR ribosomal 18S primers acted as internal controls and all RT-PCR signals were normalized to the 18S signal of the corresponding RT products. For Western blot analysis, the protein content was measured using BCA assay. Actin protein expression was used as an internal control for protein loading.
The optimal cutting temperature (OCT)-embedded tissues were fixed in 4% paraformaldehyde. Tissue sections were incubated with 5 μM dihydroethidium (DHE, Sigma-Aldrich) at 37° C. for 30 min in a humidified chamber protected from light. Then, 4′,6-diamidino-2-phenylindole (DAPI) was applied. Images were acquired by confocal fluorescence microscope.

For `OCc1ccc(O)cc1` [HBA, 4-hydroxybenzyl alcohol, reference compound], the TNF-α level (TNF-α) was “reduced the expression of TNF-α but only at a higher dose than BRAP”, the “inhibition of LPS-induced ROS generation” value [1] was “moderate inhibitory effects” and the “concentration at which nitric oxide production was inhibited” value [2] was “higher than 0.5 mM”. For the same compound, the iNOS level (iNOS) was “failed to reduce iNOS level”, the “chemiluminescence intensity (H2O2 scavenging)” value [3] was “did not reduce chemiluminescence intensity” and the “ROS generation (DHE staining) in liver” value (hepatic I/R injury) was “suppressed”. For the same compound, the “protection from I/R-induced liver damage (serum ALT)” value (hepatic I/R injury) was “much less potent protective effect”, the “hepatic damages (histology, H/E)” value (hepatic I/R injury; 1 hour ischemia/12 hour reperfusion, same dose of HBA and BRAP) was “minimal therapeutic effects” and the TNF-α protein expression (hepatic I/R injury; same dose of HBA and BRAP) was “minimal inhibitory effects”. The “cleaved caspase-3 protein expression” value (hepatic I/R injury; same dose of HBA and BRAP) was “minimal inhibitory effects” and the “hepatic apoptosis (TUNEL)” value (hepatic I/R injury; same dose of HBA and BRAP) was “modest inhibitory effects”.
